In patent US20050170360A1, “Variant neuronal nicotinic alpha-7 receptor and methods of use” (priority 2004, published 2005):
Like-named read-outs stand apart in the source and are kept apart here. Blank lines part the entries; values can stand above or below the compound they belong to.

Legend:
L247T mutant = L247T mutant (UniProt P22770, L270T, species not given); assay type: cell-based; conditions: for type of activity (agonist / antagonist): L247T
wild-type α7 nAChR = wild-type α7 nAChR (Rattus norvegicus, UniProt Q05941); assay: Two-electrode voltage-clamp recording of Xenopus oocytes expressing wild-type α7
Description: Mature (>9 cm) female Xenopus laevis African toads (Nasco, Ft. Atkinson, Wis.) were used as a source of oocytes. Prior to surgery, frogs were anesthetized by placing the animal in a 2 g/L solution of MS222 (3-aminobenzoic acid ethyl ester). Oocytes were removed from an incision made in the abdomen.
(§3) Subsequently, stage 5 oocytes were isolated and injected with 50 nl each of a mixture of the appropriate subunit cRNAs following harvest. Recordings were made 3 to 21 days after injection depending on the cRNAs being tested.
(§4) Voltage-clamp recording of whole oocate responses. Data were obtained by means of two-electrode voltage-clamp recording. […] This extracellular solution was used for all experiments unless otherwise noted.
(§5) Bath solution and drug applications are applied through a linear perfusion system to oocytes placed in Lucite chamber with a total volume of 0.5 ml. Drug delivery involves pre-loading a 1.8 ml length of tubing at the terminus of the perfusion system, while a Mariotte flask filled with Ringer's solution is used to maintain constant perfusion. Applications of drug solutions are then synchronized with acquisition. […] In addition, some oocyte recordings were made using a beta version of the OpusXpress 6000A (Axon Instruments, Union City, Calif.). OpusXpress is an integrated system that provides automated impalement and voltage clamp, which in our case permitted the study of four oocytes in parallel. Cells were automatically perfused with bath solution, and agonist solutions were delivered from a 96-well compound plate. In experiments using the OpusXpress system, the voltage and current electrodes were filled with 3 M KCl. In all experiments, bath flow rates were set at 6 ml/minute.
(§6) Experimental protocols and analysis of data from Xenopus oocytes. Current responses to drug application were studied under two-electrode voltage clamp at a holding potential of −50 mV unless otherwise noted (−60 mV for the OpusXpress system). Holding currents immediately prior to agonist application were subtracted from measurements of the peak response to agonist. All drug applications were separated by a wash period of 5 minutes unless otherwise noted. […] Means and standard errors (SEM) were calculated from the normalized responses of at least four oocytes for each experimental concentration.
(§7) For concentration-response relations, data were plotted using Kaleidagraph 3.0.2 (Abelbeck Software; Reading, Pa.), and curves were generated using the Hill equation: [formula] where Imax denotes the maximal response for a particular agonist/subunit combination, and n represents the Hill coefficient. Imax, n, and the EC50 were all unconstrained for the fitting procedures.
(§8) Calculations of peak amplitudes and net charge were made using pClamp either during acquisition or during subsequent Clampfit analysis.

rat α7 TM2 T6'S = rat α7 TM2 T6'S (Rattus norvegicus, UniProt Q05941, T267S); assay: Two-electrode voltage-clamp recording of Xenopus oocytes expressing α7 TM2 T6'S mutant
Description: Expression in Xenopus oocvtes. Mature (>9 cm) female Xenopus laevis African toads (Nasco, Ft. Atkinson, Wis.) were used as a source of oocytes. Prior to surgery, frogs were anesthetized by placing the animal in a 2 g/L solution of MS222 (3-aminobenzoic acid ethyl ester). Oocytes were removed from an incision made in the abdomen.
as §3, §4, §5, §6, §7, §8

rat α7 TM2 T6'F = biological target: T1, rat α7 TM2 T6'F (Rattus norvegicus, UniProt Q05941, T267F); assay: Two-electrode voltage-clamp recording of Xenopus oocytes expressing α7 TM2 T6'F mutant; assay type: cell-based
T1 construct: expressed in transfected cells; host or cells: Xenopus laevis oocytes injected with cRNA
Description: Site-directed mutagenesis.
(§1) Expression in Xenopus oocvtes.
(§2) Voltage-clamp recording of whole oocate responses.

muscle-type receptors = biological target: T2, muscle-type receptors (Mus musculus, UniProt P02716+P04756); assay: Two-electrode voltage-clamp recording of Xenopus oocytes expressing muscle-type receptors; assay type: cell-based
T2 construct: expressed in transfected cells; host or cells: Xenopus laevis oocytes injected with cRNA
Description: as §1, §2

Compound: [Zn+2] [Zinc]
type of activity (agonist / antagonist) (L247T mutant): agonist
type of activity (agonist / antagonist / potentiation) (wild-type α7 nAChR; Wild type): antagonist
type of activity (agonist / antagonist / potentiation) (rat α7 TM2 T6'S; T6'S): antagonist

Compound: C[N+](C)(C)CCOC(=O)CCC(=O)OCC[N+](C)(C)C [succinylcholine]
activation of receptor (rat α7 TM2 T6'F; 100 μM succinylcholine): dramatic increase in sensitivity
concentration-response function (rat α7 TM2 T6'F; full range of concentrations): relatively potent, full agonist
type of activity (muscle-type receptors): Selective Agonist
activation of receptor (wild-type α7 nAChR): relatively ineffective
concentration-response function (wild-type α7 nAChR; full range of concentrations): respond poorly
activation of receptor (rat α7 TM2 T6'S): virtually no response
concentration-response function (rat α7 TM2 T6'S; full range of concentrations): respond poorly

Compound: C[N+](C)(C)CCO [Choline]
EC50 (L247T mutant): 12 µM
EC50 (wild-type α7 nAChR): 300 µM
% agonist (wild-type α7 nAChR; Wild type): 100% agonist 300 μM
EC50 (rat α7 TM2 T6'S): 2000 µM
EC50 (rat α7 TM2 T6'S; EC50, T6'S column): ~360 µM
% agonist (rat α7 TM2 T6'S; T6'S): 95% agonist 2 mM

Compound: COc1cc2c3cc1Oc1cc(ccc1O)C[C@@H]1c4c(cc(OC)c(O)c4Oc4ccc(cc4)C[C@@H]3N(C)CC2)CC[N+]1(C)C [Tubocurarine]
type of activity (agonist / antagonist) (L247T mutant): agonist
type of activity (agonist / antagonist / potentiation) (wild-type α7 nAChR; Wild type): antagonist
type of activity (agonist / antagonist / potentiation) (rat α7 TM2 T6'S; T6'S): antagonist

Compound: C[N+](C)(C)CCCCCC[N+](C)(C)C [Hexamethonium]
type of activity (agonist / antagonist) (L247T mutant): agonist
type of activity (agonist / antagonist / potentiation) (wild-type α7 nAChR; Wild type): antagonist
type of activity (agonist / antagonist / potentiation) (rat α7 TM2 T6'S; T6'S): antagonist

Compound: O=c1cccc2n1C[C@@H]1CNC[C@H]2C1 [Cytisine]
% agonist (wild-type α7 nAChR): 73% agonist 13 μM
EC50 (wild-type α7 nAChR): 13 µM
% agonist (rat α7 TM2 T6'S): 80% agonist 43 μM
EC50 (rat α7 TM2 T6'S): 43 µM

Compound: NCCc1c[nH]c2ccc(O)cc12 [5-HT]
type of activity (agonist / antagonist) (L247T mutant): agonist
type of activity (agonist / antagonist / potentiation) (wild-type α7 nAChR; Wild type): antagonist
type of activity (agonist / antagonist / potentiation) (rat α7 TM2 T6'S; T6'S): antagonist

Compound: COc1ccc(/C=C2\CCCN=C2c2cccnc2)c(OC)c1 [GTS-21 (DMXB)]
type of activity (agonist / antagonist) (L247T mutant): full
EC50 (wild-type α7 nAChR): 5 µM
% agonist (wild-type α7 nAChR; Wild type): 32%
EC50 (rat α7 TM2 T6'S): 3 µM
% agonist (rat α7 TM2 T6'S; T6'S): 12%

Compound: Oc1ccc2[nH]ccc2c1 [5HI, 5-hydroxy-indole]
type of activity (agonist / antagonist / potentiation) (wild-type α7 nAChR; Wild type): potentiates
type of activity (agonist / antagonist / potentiation) (rat α7 TM2 T6'S; T6'S): does not potentiate

% agonist (wild-type α7 nAChR; Wild type): 38%
% agonist (rat α7 TM2 T6'S; T6'S): 30%
Compound: CN1[C@@H]2CC[C@H]1C[C@@H](OC(=O)c1c[nH]c3ccccc13)C2 [Tropisetron]

Compound: O=C1NCC2(CN3CCC2CC3)O1 (centres unmarked) [AR-R17779]
% agonist (wild-type α7 nAChR; Wild type): 78% agonist 10 μM
% agonist (rat α7 TM2 T6'S; T6'S): 90% agonist 30 μM

Compound: CNCC/C=C/c1cccnc1 [TC-2403]
EC50 (wild-type α7 nAChR): 240 µM
% agonist (wild-type α7 nAChR; Wild type): 16%
EC50 (rat α7 TM2 T6'S): 400 µM
% agonist (rat α7 TM2 T6'S; T6'S): 18% agonist
